In US9951046B2, “TRPA1 modulators” (Algomedix, Inc., priority 2014, dated 2018):

Molecular target: T1, human TRPA1 (Homo sapiens, UniProt O75762)
T1 construct: expressed in transfected cells
Assay: Cell-based functional intracellular calcium ([Ca2+]i) assay, Fluo-4/Fluo-8, FlexStation, challenge with reference TRPA1 agonist (FFA, AITC or 4-HNE)
Conditions: HEK293 cells expressing human TRPA1; IC50 class after addition of reference TRPA1 agonist (FFA, AITC or 4-HNE); read-out: human TRPA1-HEK Activity
In short: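 Doxycycline-induced (1 μg/ml) HEK293 expressing human TRPA1, with 5 μM ruthenium red during induction, loaded with Fluo-4 or Fluo-8 plus 2 mM probenecid; FlexStation read at 20-25° C, sometimes with 0.1% BSA.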

T1 sequence (O75762 whole entry): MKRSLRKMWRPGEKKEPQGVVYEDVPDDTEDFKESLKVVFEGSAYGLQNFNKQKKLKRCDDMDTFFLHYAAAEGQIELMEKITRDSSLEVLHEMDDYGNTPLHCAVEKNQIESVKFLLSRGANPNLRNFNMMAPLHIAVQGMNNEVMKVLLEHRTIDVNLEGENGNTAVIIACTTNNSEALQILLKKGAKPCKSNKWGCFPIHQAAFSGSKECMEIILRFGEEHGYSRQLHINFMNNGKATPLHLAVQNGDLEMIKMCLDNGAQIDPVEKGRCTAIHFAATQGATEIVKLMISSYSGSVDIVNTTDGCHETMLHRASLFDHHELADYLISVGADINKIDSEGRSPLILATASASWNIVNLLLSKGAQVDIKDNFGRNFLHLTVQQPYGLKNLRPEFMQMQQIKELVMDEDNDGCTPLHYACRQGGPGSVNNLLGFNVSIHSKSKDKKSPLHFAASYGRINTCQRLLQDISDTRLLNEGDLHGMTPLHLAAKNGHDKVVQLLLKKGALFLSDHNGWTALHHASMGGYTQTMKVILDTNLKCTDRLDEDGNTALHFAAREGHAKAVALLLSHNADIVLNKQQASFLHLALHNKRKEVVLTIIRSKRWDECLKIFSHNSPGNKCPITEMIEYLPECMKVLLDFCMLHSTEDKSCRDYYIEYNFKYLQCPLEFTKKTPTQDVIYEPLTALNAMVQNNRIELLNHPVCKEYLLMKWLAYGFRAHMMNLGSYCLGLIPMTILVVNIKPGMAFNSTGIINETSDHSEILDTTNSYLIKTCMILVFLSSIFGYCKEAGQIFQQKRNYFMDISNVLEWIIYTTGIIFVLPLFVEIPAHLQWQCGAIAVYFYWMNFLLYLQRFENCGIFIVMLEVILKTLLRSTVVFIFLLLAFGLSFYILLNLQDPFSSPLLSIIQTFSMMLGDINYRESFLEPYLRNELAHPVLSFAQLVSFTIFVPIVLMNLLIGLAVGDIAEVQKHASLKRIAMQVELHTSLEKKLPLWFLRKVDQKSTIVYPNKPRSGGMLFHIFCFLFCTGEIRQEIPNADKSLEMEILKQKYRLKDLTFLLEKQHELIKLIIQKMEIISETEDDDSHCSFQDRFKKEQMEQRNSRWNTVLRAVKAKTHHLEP

| Compound | IC50 |
| --- | --- |
| O=C(c1cc(-c2cccnc2Cl)n(-c2ccc(C(F)(F)F)c(F)c2)n1)N1CCC(n2c(=O)[nH]c3ccc(F)c(F)c32)CC1 [Compound 247] | > 25 µM |
| O=C(c1cc(-c2cccnc2)n(-c2cc(F)c(F)c(F)c2)n1)N1C2CCC1CC(n1c(=O)[nH]c3ccc(F)c(F)c31)C2 (stereo not shown) [Compound 250] | > 25 µM |
| O=C(c1cc(-c2ccccn2)n(-c2cc(F)c(F)c(F)c2)n1)N1CCC(n2c(=O)[nH]c3ccc(F)c(F)c32)CC1 [Compound 252] | 5 to 25 µM |
| O=C(c1cc(-c2cccnc2)n(-c2cc(F)c(F)c(F)c2)n1)N1CCC(n2c(=O)[nH]c3ncccc32)CC1 [Compound 256] | > 25 µM |
| O=C(c1cc(-c2cccnc2)n(-c2cc(F)c(F)c(F)c2)n1)N1CCC2(CC1)C(=O)NCN2c1ccc(F)cc1F [Compound 257] | > 25 µM |
| O=C1Nc2ccccc2C1N1CCN(C(=O)c2cc(-c3cccnc3)n(-c3ccc(C(F)(F)F)c(F)c3)n2)CC1 (stereo not shown) [Compound 258] | > 25 µM |
| O=C(c1cc(-c2cccnc2)n(-c2ccc(C(F)(F)F)c(F)c2)n1)N1CCC2(CC1)C(=O)Nc1ccccc12 [Compound 259] | 5 to 25 µM |
| Cc1ccc(-c2cc(C(=O)N3CCC4(CC3)C(=O)NCN4c3ccc(F)cc3)nn2-c2ccc(C(F)(F)F)c(F)c2)cn1 [Compound 262] | 5 to 25 µM |
| Cc1nc(C(F)(F)F)ccc1-c1cc(C(=O)N2CCC3(CC2)C(=O)NCN3c2ccc(F)cc2)nn1-c1ccc(C(F)(F)F)c(F)c1 [Compound 263] | > 25 µM |
| O=C(c1cc(-c2ccccn2)n(-c2ccc(C(F)(F)F)c(F)c2)n1)N1CCC2(CC1)C(=O)NCN2c1ccc(F)cc1 [Compound 264] | 5 to 25 µM |
| O=C(c1cc(-c2cccnc2)n(-c2ccc(F)c(C(F)(F)F)c2)n1)N1CCC2(CC1)C(=O)NCN2c1ccc(OC(F)F)cc1 [Compound 283] | 5 to 25 µM |
| O=C(c1cc(-c2cccnc2)n(-c2ccc(F)c(C(F)(F)F)c2)n1)N1CCC(N2Cc3c(F)cccc3NC2=O)CC1 [Compound 289] | 0.001 to 5 µM |
| O=C(c1cc(-c2cccnc2)n(-c2ccc(F)c(C(F)(F)F)c2)n1)N1CCC(N2Cc3ccc(F)cc3NC2=O)CC1 [Compound 290] | 0.001 to 5 µM |
| O=C(c1cc(-c2cccnc2)n(-c2ccc(F)c(C(F)(F)F)c2)n1)N1CCC(n2c(=S)[nH]c3ccc(F)c(F)c32)CC1 [Compound 291] | 0.001 to 5 µM |
| CC1CC2(CCN1C(=O)c1cc(-c3cccnc3)n(-c3ccc(F)c(C(F)(F)F)c3)n1)OC(=O)Nc1ccc(C(F)(F)F)cc12 (stereo not shown) [Compound 292] | 5 to 25 µM |
| CC1CC(n2c(=O)[nH]c3ccc(F)c(F)c32)CCN1C(=O)c1cc(-c2cccnc2)n(-c2ccc(F)c(C(F)(F)F)c2)n1 (stereo not shown) [Compound 293] | 0.001 to 5 µM |
| CC1CC(n2c(=S)[nH]c3ccc(F)c(F)c32)CCN1C(=O)c1cc(-c2cccnc2)n(-c2ccc(F)c(C(F)(F)F)c2)n1 (stereo not shown) [Compound 294] | 0.001 to 5 µM |
| O=C(c1cc(-c2cccnc2)n(-c2ccc(Cl)c(C(F)(F)F)c2)n1)N1CCC(n2c(=O)[nH]c3ccc(F)c(F)c32)CC1 [Compound 295] | 0.001 to 5 µM |
| O=C(c1cc(-c2cccnc2)n(-c2ccc(Cl)c(C(F)(F)F)c2)n1)N1CCC2(CC1)C(=O)NCN2c1ccc(F)cc1 [Compound 296] | 0.001 to 5 µM |

| Compound | IC50 |
| --- | --- |
| O=C(c1cc(-c2cccnc2)n(-c2ccc(F)c(C(F)(F)F)c2)n1)N1CCC(n2c(=O)[nH]c3cc(F)c(F)c(F)c32)CC1 [Compound 297] | 0.001 to 5 µM |
| O=C(c1cc(-c2cccnc2)n(-c2ccc(F)c(C(F)(F)F)c2)n1)N1CCC(n2c(=S)[nH]c3cc(F)c(F)c(F)c32)CC1 [Compound 298] | 0.001 to 5 µM |
| O=C(c1cc(-c2cnccn2)n(-c2ccc(F)c(C(F)(F)F)c2)n1)N1CCC(n2c(=O)[nH]c3ccc(F)c(F)c32)CC1 [Compound 305] | 0.001 to 5 µM |
| O=C(c1cc(-c2cnccn2)n(-c2ccc(F)c(C(F)(F)F)c2)n1)N1CCC2(CC1)C(=O)NCN2c1ccc(F)cc1 [Compound 306] | 0.001 to 5 µM |
| O=C(c1nn(-c2ccc(F)c(C(F)(F)F)c2)c2c1CCc1ncccc1-2)N1CCC2(CC1)C(=O)NCN2c1ccc(F)cc1 [Compound 313] | 0.001 to 5 µM |
| O=C(c1nn(-c2ccc(F)c(C(F)(F)F)c2)c2c1CCc1ncccc1-2)N1CCC(n2c(=O)[nH]c3ccc(F)c(F)c32)CC1 [Compound 314] | 0.001 to 5 µM |
| O=C(c1nn(-c2ccc(F)c(C(F)(F)F)c2)c2c1CCc1cccnc1-2)N1CCC2(CC1)C(=O)NCN2c1ccc(F)cc1 [Compound 315] | 0.001 to 5 µM |
| O=C(c1nn(-c2ccc(F)c(C(F)(F)F)c2)c2c1CCc1cccnc1-2)N1CCC(n2c(=O)[nH]c3ccc(F)c(F)c32)CC1 [Compound 316] | 0.001 to 5 µM |
| O=C(c1cc(-c2cccnc2Cl)n(-c2ccc(C(F)(F)F)c(F)c2)n1)N1CCC2(CC1)C(=O)NCN2c1ccc(F)cc1 [Compound 317] | 0.001 to 5 µM |
| O=C(c1cc(-c2cncc(F)c2)n(-c2ccc(C(F)(F)F)c(F)c2)n1)N1CCC2(CC1)C(=O)NCN2c1ccc(F)cc1 [Compound 318] | 0.001 to 5 µM |
| O=C(c1cc(-c2cncc(F)c2)n(-c2ccc(C(F)(F)F)c(F)c2)n1)N1CCC(n2c(=O)[nH]c3ccc(F)c(F)c32)CC1 [Compound 319] | 0.001 to 5 µM |
| O=C(c1cc(-c2ccnnc2)n(-c2ccc(C(F)(F)F)c(F)c2)n1)N1CCC2(CC1)C(=O)NCN2c1ccc(F)cc1 [Compound 320, 8-(1-(3-fluoro-4-(trifluoromethyl)phenyl)-5-(pyridazin-4-yl)-1H-pyrazole-3-carbonyl)-1-(4-fluorophenyl)-1,3,8-triazaspiro [4.5]decan-4-one] | 0.001 to 5 µM |
| O=C(c1cc(-c2ccnnc2)n(-c2cc(F)c(F)c(F)c2)n1)N1CCC(n2c(=O)[nH]c3ccc(F)c(F)c32)CC1 [Compound 321] | 0.001 to 5 µM |
| O=C(c1cc(-c2cccnc2)n(-c2ccc(C(F)(F)F)cc2C(F)(F)F)n1)N1CCC2(CC1)C(=O)NCN2c1ccc(F)cc1 [Compound 322] | 0.001 to 5 µM |
| N#Cc1cc(C(F)(F)F)ccc1-n1nc(C(=O)N2CCC3(CC2)C(=O)NCN3c2ccc(F)cc2)cc1-c1cccnc1 [Compound 323] | 0.001 to 5 µM |
| N#Cc1ccc(-n2nc(C(=O)N3CCC4(CC3)C(=O)NCN4c3ccc(F)cc3)cc2-c2cccnc2)c(C(F)(F)F)c1 [Compound 324] | 0.001 to 5 µM |
| N#Cc1ccc(-n2nc(C(=O)N3CCC(n4c(=O)[nH]c5ccc(F)c(F)c54)CC3)cc2-c2cccnc2)c(C(F)(F)F)c1 [Compound 325] | 0.001 to 5 µM |
| O=C(c1cc(-c2cccnc2)n(-c2ccc(I)c(C(F)(F)F)c2)n1)N1CCC2(CC1)C(=O)NCN2c1ccc(F)cc1 [Compound 326] | 0.001 to 5 µM |
| O=C(c1cc(-c2cccnc2)n(-c2ccc(I)c(C(F)(F)F)c2)n1)N1CCC(n2c(=O)[nH]c3ccc(F)c(F)c32)CC1 [Compound 327] | 0.001 to 5 µM |

Now from value to molecule:

| IC50 | Compound |
| --- | --- |
| 0.001 to 5 µM | O=C(c1cc(-c2cccnc2)n(-c2ccc(I)cc2)n1)N1CCC2(CC1)C(=O)NCN2c1ccc(F)cc1 [Compound 246] |
| 0.001 to 5 µM | N#Cc1cc(-n2nc(C(=O)N3CCC(n4c(=O)[nH]c5ccc(F)c(F)c54)CC3)cc2-c2cccnc2)ccc1F [Compound 248] |
| 0.001 to 5 µM | Cc1cc(N2CNC(=O)C23CCN(C(=O)c2cc(-c4cccnc4)n(-c4ccc(F)c(C#N)c4)n2)CC3)cc(C)c1F [Compound 249] |
| 0.001 to 5 µM | O=C(c1cc(-c2cccnc2)n(-c2cc(F)c(F)c(F)c2)n1)N1CCC2(CC1)C(=O)NCN2c1ccc(F)cc1 [Compound 253] |
| 0.001 to 5 µM | O=C(c1cc(-c2cccnc2)n(-c2cc(F)c(F)c(F)c2)n1)N1CCC2(CC1)C(=O)NCN2c1ccc(F)c(F)c1 [Compound 254] |
| 0.001 to 5 µM | Cc1cc(N2CNC(=O)C23CCN(C(=O)c2cc(-c4cccnc4)n(-c4cc(F)c(F)c(F)c4)n2)CC3)ccc1F [Compound 255] |
| 0.001 to 5 µM | O=C(c1cc(-c2cccnc2)n(-c2ccc(C(F)(F)F)c(F)c2)n1)N1CCC(n2c(=O)[nH]c3ncccc32)CC1 [Compound 260] |
| 0.001 to 5 µM | CC1CC(n2c(=O)[nH]c3ccccc32)CCN1C(=O)c1cc(-c2cccnc2)n(-c2ccc(C(F)(F)F)c(F)c2)n1 (stereo not shown) [Compound 261] |
| 0.001 to 5 µM | Cc1c(C(=O)N2CCC3(CC2)C(=O)NCN3c2ccc(F)cc2)nn(-c2ccc(C(F)(F)F)c(F)c2)c1-c1cccnc1 [Compound 265] |
| 0.001 to 5 µM | Cc1c(C(=O)N2CCC3(CC2)C(=O)NCN3c2ccc(F)cc2)nn(-c2cc(F)c(F)c(F)c2)c1-c1cccnc1 [Compound 266] |
| 0.001 to 5 µM | O=C1Nc2ccc(F)c(F)c2C2(CCN(C(=O)c3cc(-c4cccnc4)n(-c4ccc(F)c(C(F)(F)F)c4)n3)CC2)O1 [Compound 272] |
| 0.001 to 5 µM | O=C1Nc2cc(F)c(F)cc2C2(CCN(C(=O)c3cc(-c4cccnc4)n(-c4ccc(F)c(C(F)(F)F)c4)n3)CC2)O1 [Compound 273] |
| 0.001 to 5 µM | O=C1Nc2ccc(C(F)(F)F)cc2C2(CCN(C(=O)c3cc(-c4cccnc4)n(-c4ccc(F)c(C(F)(F)F)c4)n3)CC2)O1 [Compound 274] |
| 0.001 to 5 µM | O=C1Nc2cc(F)ccc2C2(CCN(C(=O)c3cc(-c4cccnc4)n(-c4ccc(F)c(C(F)(F)F)c4)n3)CC2)O1 [Compound 278] |
| 0.001 to 5 µM | O=C1Nc2ccc(Cl)cc2C2(CCN(C(=O)c3cc(-c4cccnc4)n(-c4ccc(F)c(C(F)(F)F)c4)n3)CC2)O1 [Compound 280] |
| 0.001 to 5 µM | O=C1Nc2ncccc2C2(CCN(C(=O)c3cc(-c4cccnc4)n(-c4ccc(F)c(C(F)(F)F)c4)n3)CC2)O1 [Compound 281] |
| 0.001 to 5 µM | O=C1Nc2ccc(F)cc2C2(CCN(C(=O)c3cc(-c4cccnc4)n(-c4ccc(F)c(C(F)(F)F)c4)n3)CC2)O1 [Compound 282] |
| 0.001 to 5 µM | N#Cc1ccc(-n2nc(C(=O)N3CCC(n4c(=O)[nH]c5ccc(F)c(F)c54)CC3)cc2-c2cccnc2)cc1C(F)(F)F [Compound 284] |
| 0.001 to 5 µM | O=C(c1cc(-c2cccnc2)n(-c2ccc(C(F)(F)F)c(C(F)(F)F)c2)n1)N1CCC(n2c(=O)[nH]c3ccc(F)c(F)c32)CC1 [Compound 285] |
| 0.001 to 5 µM | Cc1cc(-n2nc(C(=O)N3CCC(n4c(=O)[nH]c5ccc(F)c(F)c54)CC3)cc2-c2cccnc2)cc(C(F)(F)F)c1F [Compound 286] |
